Measurements: patent publication US20150031598A1, “NEMO BINDING DOMAIN FUSION PROTEINS” (Encode Bio, Inc., priority 2012, published 2015)
Ends that are not written are not given here.

Key:
[1] = tested on: collagen-induced arthritis; assay: Mouse collagen-induced arthritis (CIA) model, therapeutic mode; format: in vivo, male DBA/1J mice
Method: We next tested the efficacy of linear NBD-MCoTI-II in the mouse CIA model in therapeutic mode, a standard model for evaluating anti-arthritic activity. Mice were injected with collagen type II. CIA was induced in male DBA/1J mice by tail injection of Type II collagen (100 μg) mixed with complete Freund's adjuvant. On Day 21, a booster injection (i.p.) of collagen (100 μg)/incomplete Freund's adjuvant was administered. The severity of arthritis (arthritic index (AI)) was scored in each paw as follows: 0-no evidence of erythema and swelling, 1-erythema and mild swelling confined to the mid-foot (tarsals) or ankle joint, 2-erythema and mild swelling extending from the ankle to the mid-foot, 3-erythema and moderate swelling extending from the ankle to the metatarsal joints and 4-erythema and severe swelling encompass the ankle, foot and digits. AI scores were measured in each paw and summed (maximum score of 16 per mouse). After the AI score reached an average of 3.1 on Day 27, mice were separated into three treatment groups and administered (i.p.) daily: saline, 100 μg/kg NBD-MCoTI-II and 3 mg/kg dexamethasone for 14 days. AI scores, body weights, paw thickness and any signs of distress were monitored daily. […] The marked inhibition of arthritic disease progression by NBD-MCoTI-II persisted for the study duration. […] The effect lasted the study duration.
To further assess the efficacy of linear NBD-MCoTI-II we performed histopathology analysis of the studies on the joints of CIA mice treated with saline and NBD-MCoTI-II (100 μg/kg).
To compare the efficacy of NBD-MCoTI-II to existing anti-arthritic drugs we calculated a composite histopathology score for the CIA mice from the individual scores of inflammation, pannus, cartilage damage and bone resorption by adding them. Shown in FIG. 9 is a comparison of the composite histopathology scores for NBD-MCoTI-II (100 μg/kg) to published values for the existing anti-arthritic drugs Enbrel™ (15 mg/kg), Orencia™ (5 mg/kg), Xeljanz™ (10 mg/kg) and INCB028050 (15/mg). Data are presented as a percent of the composite histopathology scores for CIA mice treated with saline. […] J Immunol 184:5298-307, the contents of each of which are herein incorporated by reference in their entireties). […] Thus, linear NBD-MCoTI-II prevented joint damage while the other anti-arthritic drugs were only capable of reducing joint damage.
Splenomegaly is associated with arthritis and has been observed in the mouse CIA model [(see, e.g., Foell J L et al., (2004) Engagement of the CD137 (4-1BB) costimulatory molecule inhibits and reverses the autoimmune process in collagen-induced arthritis and establishes lasting disease resistance. Immunology 113:89-98; and Liu Y et al., (2011) Therapeutic effects of TACI-Ig on collagen-induced arthritis by regulating T and B lymphocytes function in DBA/1 mice. Eur J Pharmacol 654:304-14); the contents of each of which are herein incorporated by reference in their entirities)].
Mouse body weights were unchanged relative to saline controls.

[2] = tested on: carrageenan-induced paw edema; assay: Mouse carrageenan paw edema (CPE) model; format: in vivo; conditions: for reduction of swelling: 12 hours post-carrageenan
Method: Anti-inflammatory activity of linear NBD-MCoTI-II was tested at two doses (5 and 25 μg/kg) in the mouse CPE model. Mice were administered (i.p.) either NBD-MCoTI-II, dexamethasone (10 mg/kg) or saline one hour prior to inducing edema by carrageenan injection into the subplantar region of the left hind foot. Swelling was then measured by water displacement method at 2, 4, 6 and 12 hours post-carrageenan injection. […] At 12 hours, 5 and 25 μg/kg NBD MCoTI-II reduced swelling 30 and 50%, respectively (FIG. 5). […] (FIG. 5).

NF-κB signaling = assay: TNFα-mediated SEAP expression in pNiFty-SEAP transfected HEK293 cells (NF-κB reporter); format: cell-based; conditions: for block of TNFα-mediated SEAP expression (in words): pNiFty-SEAP transfected HEK293 cells
From the text: HEK293 cells were transfected with the plasmid pNiFty-SEAP which encodes for a secreted alkaline phosphatase (SEAP) whose expression is under control of an ELAM-1 composite promoter containing five NF-κB sites. Treatment of cells with TNFα causes activation of the IkB kinase complex and, in turn, NF-κB, resulting in SEAP expression. We verified that pNiFty-SEAP transfected HEK293 cells treated with the NBD Peptide (FIG. 2; FIG. 3, Panel B) blocked the expression of TNFα-mediated SEAP expression in a concentration-dependent manner with an IC50 of ˜60 μM. […] Treatment of cells with circularized NBD-MCoTI-II generated in bacteria (data not shown) or linear NBD-MCoTI-II generated by automated synthesis (FIG. 2; FIG. 3 Panel A) blocked TNFα-mediated SEAP expression, but not WT MCoTI-II (FIG. 2).

HEK293 cells = format: cell-based; conditions: concentrations up to 1 μM
[3] = target: NEMO (nuclear factor kB essential modulator) (UniProt Q9Y6K9 1-419); assay: cell-based or functional assay
[4] = target: NEMO (nuclear factor kB essential modulator) (UniProt Q9Y6K9); assay: cell-based or functional assay
Sequence of NEMO (nuclear factor kB essential modulator) (UniProt Q9Y6K9) (Q9Y6K9 whole entry): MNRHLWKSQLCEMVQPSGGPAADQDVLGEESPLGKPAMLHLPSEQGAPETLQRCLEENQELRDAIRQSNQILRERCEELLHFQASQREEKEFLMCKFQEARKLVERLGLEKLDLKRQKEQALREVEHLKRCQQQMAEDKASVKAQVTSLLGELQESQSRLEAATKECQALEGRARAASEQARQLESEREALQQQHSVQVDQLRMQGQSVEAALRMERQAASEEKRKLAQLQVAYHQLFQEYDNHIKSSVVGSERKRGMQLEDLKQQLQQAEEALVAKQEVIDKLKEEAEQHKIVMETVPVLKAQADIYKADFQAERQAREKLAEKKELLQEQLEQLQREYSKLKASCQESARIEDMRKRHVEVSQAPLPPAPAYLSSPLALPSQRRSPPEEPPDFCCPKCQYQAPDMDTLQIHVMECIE

Sequence of NEMO (nuclear factor kB essential modulator) (UniProt Q9Y6K9 1-419) (Q9Y6K9 whole entry): as above

FTALDWSWLQTCPKILKKCRRDSDCPGACICRGNGYC [linear NBD-MCoTI-II]
joint histopathology scores (inflammation, pannus, cartilage damage, bone resorption) ([1]; 100 μg/kg): at or near zero
progression of arthritis (arthritic index score) ([1]; 100 μg/kg i.p. daily, by Day 29, p<0.01, persisted for the study duration): halted the progression of arthritis
increase in paw thickness ([1]; 100 μg/kg i.p. daily, p<0.01, lasted the study duration): blocked the increase in paw thickness
composite histopathology score ([1]; 100 μg/kg, percent of saline-treated CIA mice): almost zero
kidney, liver and intestine weights ([1]; CIA mice): within normal ranges
laboratory blood analysis (blood chemistry, kidney function tests, ALT, AST, blood cell counts) ([1]; CIA mice): within normal ranges
signs of toxicity or distress ([1]; CIA mice, 100 μg/kg i.p. daily for 14 days): no obvious signs of toxicity or distress
spleen weight ([1]; CIA mice, saline 135±27 mg, p<0.01): 100 ± 17 mg
efficacy relative to CP690550 (Xeljanz) and anti-TNF Ab control in ameliorating arthritic symptoms ([1]; comparison with Milici 2008): at least as effective
mouse body weights ([1]; relative to saline controls): unchanged
in vivo potency relative to NBD Peptide ([2]; 5 μg/kg NBD-MCoTI-II similar to NBD Peptide 25 mg/kg (di Meglio 2005)): 5000 fold
reduction of swelling ([2]; 5 μg/kg i.p.): 30%
reduction of swelling ([2]; 25 μg/kg i.p.): 50%
swelling (in words) ([2]; 5 and 25 μg/kg i.p., 4, 6 and 12 hours post-carrageenan): significantly reduced swelling
potency relative to NBD peptide, inhibition of NF-κB signaling (NF-κB signaling; cell-based assay, versus NBD Peptide): 10^6 fold
block of TNFα-mediated SEAP expression (in words) (NF-κB signaling): blocked
overt cellular toxicity (HEK293 cells): no overt cellular toxicity

WT MCoTI-II: wild-type MCoTI-II (SEQ ID NO:3), cystine-knot microprotein, trypsin inhibitor subfamily (MCGSGSDGGVCPKILKKCRRDSDCPGACICRGNGY; disulfide (positions not given here); not fully specified; listed as Homo sapiens) [reference compound]
block of TNFα-mediated SEAP expression (in words) (NF-κB signaling): not
overt cellular toxicity (HEK293 cells): no overt cellular toxicity

circularized NBD-MCoTI-II: circular, native-folded NBD-MCoTI-II generated in bacteria; sequence after processing SEQ ID NO:10 (cyclo(FTALDWSWLQTCPKILKKCRRDSDCPGACICRGNGYC); ends not checked; also: native-folded, disulfide pairing not given here)
block of TNFα-mediated SEAP expression (in words) (NF-κB signaling): blocked

B1: linear NBD-MCoTI-II generated by automated synthesis (designed binder)
chain: FTALDWSWLQTCPKILKKCRRDSDCPGACICRGNGYC
modifications: ends and bridges not checked; also: folded in glutathione buffers, disulfides not placed
IC50 for blocking TNFα-mediated SEAP expression (NF-κB reporter, pNiFty-SEAP transfected HEK293 cells) [3]: 60 pM

B2: NBD Peptide (peptide, part only; not given: cell penetrating peptide, part only)
peptide, part: FTALDWSWLQT
modifications: not fully specified
IC50 for blocking TNFα-mediated SEAP expression (NF-κB reporter, pNiFty-SEAP transfected HEK293 cells) [4]: 60 µM
